Test results: PubChem BioAssay (NCI)
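Growth conditions: 96-well plates. Treatment: test compound, 48 hours, 5 concentrations. Analysis: linear interpolation between bracketing concentrations; unreached endpoints set to highest concentration. TGI: concentration producing complete growth inhibition.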

How the values were obtained:
Experiment in all cases: NCI tumour cell line growth inhibition, 48 h
[1] = tested on: CAKI-1 renal
[2] = tested on: U251 CNS
[3] = tested on: MDA-MB-231 breast
[4] = tested on: 786-0 renal
[5] = tested on: OVCAR-8 ovarian
[6] = tested on: MCF7 breast
[7] = tested on: HT29 colon
[8] = tested on: HCC-2998 colon
[9] = tested on: HL-60(TB) leukemia
[10] = tested on: MOLT-4 leukemia
[11] = tested on: SF-295 CNS
[12] = tested on: M14 melanoma
[13] = tested on: K-562 leukemia
[14] = tested on: NCI-H460 lung
[15] = tested on: MALME-3M melanoma
[16] = tested on: SNB-19 CNS
[17] = tested on: A498 renal
[18] = tested on: HOP-92 NSCLC
[19] = tested on: SR leukemia

Row | SMILES | TGI [1] | TGI [2] | TGI [3] | TGI [4] | TGI [5] | TGI [6] | TGI [7] | TGI [8] | TGI [9] | TGI [10] | TGI [11] | TGI [12] | TGI [13] | TGI [14] | TGI [15] | TGI [16] | TGI [17] | TGI [18] | TGI [19]
1 | CC(=O)O[C@H]1CC[C@H]2[C@@H]3CCC4=C/C(=N/OCCN(C)C)CC[C@]4(C)[C@H]3CC[C@]12C | 27.2 µM | 26.4 µM | 39.5 µM | 22.8 µM | 28.1 µM | 17.9 µM | 6.8 µM | 19 µM | 3.68 µM | 13 µM | 17.5 µM | 10.1 µM | > 21.2 µM | 20.4 µM | 28.6 µM | 22.4 µM |  |  | 
2 | CC1=NN(C(=O)CC(=O)NC(=O)/C=C\c2ccccc2)C(=O)C1N=Nc1ccc([N+](=O)[O-])cc1 (centres undefined) | > 100 µM | > 100 µM | > 100 µM | > 100 µM | > 100 µM | > 100 µM | > 100 µM | > 100 µM | > 100 µM | > 100 µM | > 100 µM | > 100 µM | > 100 µM | > 100 µM | > 100 µM | > 100 µM | > 100 µM | 97.4 µM | 
3 | O=C(OCc1ccccc1)c1ccc(NCc2cc(O)ccc2O)cc1 | 1.79 µM | 2.64 µM | 6.08 µM | 2.67 µM | 2.75 µM | 7.81 µM | 20.3 µM | 6.12 µM | 2.56 µM |  | 17.1 µM | 4.02 µM | 6.98 µM | 18.7 µM | 2.98 µM | 10.8 µM | 3.21 µM | 2.23 µM | 
4 | COc1ccc(C(OCC2OC3(COC(c4ccccc4)(c4ccc(OC)cc4)c4ccc(OC)cc4)C(Oc4nc(=O)ccn43)C2O)(c2ccccc2)c2ccc(OC)cc2)cc1 (centres undefined) | > 100 µM | > 100 µM | > 100 µM | > 100 µM | > 100 µM | > 100 µM | > 100 µM |  | > 100 µM | > 100 µM | > 100 µM | > 100 µM | > 100 µM |  | > 100 µM | > 100 µM |  |  | > 100 µM
5 | C/C(O)=C(\C=NC(=S)c1cccnc1)C(=O)Nc1ccccc1C | > 100 µM | > 100 µM | > 100 µM | > 100 µM | > 100 µM | > 100 µM | > 100 µM | > 100 µM |  | > 100 µM | > 100 µM | > 100 µM | > 100 µM | > 100 µM |  | > 100 µM | > 100 µM | > 100 µM | 
6 | COc1ccc(-c2c(-c3ccccc3)c(C)nc3[nH]c(=S)[nH]c(=S)c23)cc1OC | > 100 µM | > 100 µM | > 100 µM | > 100 µM | > 100 µM | > 100 µM | > 100 µM | > 100 µM | > 100 µM | 63.6 µM | > 100 µM | > 100 µM | > 100 µM | 98.3 µM | 90.1 µM | > 100 µM | > 100 µM | > 100 µM | 
7 | Cc1cc2c(nn1)CCc1c-2no[n+]1[O-] | > 100 µM | > 100 µM | > 100 µM | > 100 µM | > 100 µM | > 100 µM | > 100 µM | > 100 µM |  | > 100 µM | > 100 µM | > 100 µM | > 100 µM | > 100 µM | > 100 µM | > 100 µM |  |  | > 100 µM
8 | COc1cc2c(c(OC)c1OC)C(=O)[C@@H](O)[C@H]2NC(N)=O | > 100 µM | > 100 µM | > 100 µM | > 100 µM | > 100 µM | > 100 µM | > 100 µM | > 100 µM | > 100 µM | > 100 µM | > 100 µM | > 100 µM | > 100 µM | > 100 µM | > 100 µM | > 100 µM |  |  | 
9 | Cc1c(NC(=O)CSC(=S)N(C)C)c(=O)n(-c2ccccc2)n1C | > 100 µM | > 100 µM | > 100 µM | > 100 µM | > 100 µM | > 100 µM | > 100 µM | > 100 µM |  | > 100 µM | > 100 µM | > 100 µM | > 100 µM | > 100 µM | > 100 µM | > 100 µM |  |  | > 100 µM
10 | O=C(O/N=c1/ccc(=O)/c(=N\OC(=O)c2ccccc2)c1=O)c1ccccc1 | > 100 µM | > 100 µM |  | > 100 µM | > 100 µM | > 100 µM | > 100 µM | > 100 µM | 52.1 µM | > 100 µM | > 100 µM | > 100 µM | > 100 µM | > 100 µM |  | > 100 µM | > 100 µM | > 100 µM | > 100 µM
11 | CCOC(=O)CC(=O)Nc1cccc2sc3ncccc3c(=O)c12 | > 100 µM | > 100 µM | > 100 µM | > 100 µM | > 100 µM | > 100 µM | > 100 µM | > 100 µM |  | > 100 µM | > 100 µM | > 100 µM | > 100 µM | > 100 µM | > 100 µM | > 100 µM |  |  | > 100 µM
12 | O=C(Cn1c2c(c3ccccc31)CCCC2)N1CCCCC1 | > 100 µM |  |  | > 100 µM | > 100 µM | > 100 µM | > 100 µM | > 100 µM | > 100 µM | > 100 µM | > 100 µM | > 100 µM |  | > 100 µM | > 100 µM | > 100 µM |  | > 100 µM | > 100 µM
13 | Nc1nc(Cl)c(N)c(NCC2(CO)CCC(CCc3ccccc3)C2)n1 (centres undefined) | 47.2 µM | 29 µM | 34.4 µM | 61.2 µM | 38.1 µM | 34.9 µM | 29.2 µM | 31.9 µM | 31.3 µM | 28 µM | 29.8 µM | 27.4 µM | 48 µM | 32.2 µM | 30.3 µM | > 94 µM | 49.5 µM | 49.2 µM | 
14 | COC1(OC)N=C(N)C2(C#N)C(C)=C3NCN(C)N=C3C12C#N (centres undefined) | > 100 µM | > 100 µM | > 100 µM | > 100 µM | > 100 µM | > 100 µM | > 100 µM | > 100 µM |  |  | > 100 µM | > 100 µM | > 100 µM |  | > 100 µM | > 100 µM | > 100 µM | > 100 µM | 
